Experimental data reported in patent publication US20250136578A1 (Kolm Therapeutics Inc., priority 2023, published 2025).

Legend:
[1] = test system: VCaP cells; experiment: VCaP growth inhibition assay (CTG); assay type: cell-based; conditions: Homo sapiens, 216 h, 30 pM R1881, 9 days
Method in brief: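 Growth was measured by CTG luminescence after a 9-day exposure of VCaP cells to compound (final 10 fM–100 nM, fivefold steps) in the presence of 30 pM final R1881, in phenol red-free DMEM/5% CSS. IC50 values were derived by nonlinear 4-parameter regression of RLU against concentration.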

[2] = biological target: AR / CBP ternary complex (Homo sapiens, UniProt P10275+Q92793); experiment: Ternary complex formation assay (sandwich ELISA, AR capture, CBP antibody detection) in VCaP cell lysates; assay type: cell-based; conditions: treated 1.5 hours, rabbit CBP or p300 antibody detection, average, read-out: Average Ternary Complex
Method in brief: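 Sandwich ELISA: plates were coated with anti-AR antibody (AR441) and given lysates of VCaP cells treated 1.5 h with bifunctional compound in charcoal-stripped serum. Co-captured CBP or p300 was probed with rabbit mAbs and HRP secondary. Chemifluorescent signal (ex 570/em 585) was read at 0, 5 and 15 min.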

Chain of AR / CBP ternary complex (P10275 whole entry): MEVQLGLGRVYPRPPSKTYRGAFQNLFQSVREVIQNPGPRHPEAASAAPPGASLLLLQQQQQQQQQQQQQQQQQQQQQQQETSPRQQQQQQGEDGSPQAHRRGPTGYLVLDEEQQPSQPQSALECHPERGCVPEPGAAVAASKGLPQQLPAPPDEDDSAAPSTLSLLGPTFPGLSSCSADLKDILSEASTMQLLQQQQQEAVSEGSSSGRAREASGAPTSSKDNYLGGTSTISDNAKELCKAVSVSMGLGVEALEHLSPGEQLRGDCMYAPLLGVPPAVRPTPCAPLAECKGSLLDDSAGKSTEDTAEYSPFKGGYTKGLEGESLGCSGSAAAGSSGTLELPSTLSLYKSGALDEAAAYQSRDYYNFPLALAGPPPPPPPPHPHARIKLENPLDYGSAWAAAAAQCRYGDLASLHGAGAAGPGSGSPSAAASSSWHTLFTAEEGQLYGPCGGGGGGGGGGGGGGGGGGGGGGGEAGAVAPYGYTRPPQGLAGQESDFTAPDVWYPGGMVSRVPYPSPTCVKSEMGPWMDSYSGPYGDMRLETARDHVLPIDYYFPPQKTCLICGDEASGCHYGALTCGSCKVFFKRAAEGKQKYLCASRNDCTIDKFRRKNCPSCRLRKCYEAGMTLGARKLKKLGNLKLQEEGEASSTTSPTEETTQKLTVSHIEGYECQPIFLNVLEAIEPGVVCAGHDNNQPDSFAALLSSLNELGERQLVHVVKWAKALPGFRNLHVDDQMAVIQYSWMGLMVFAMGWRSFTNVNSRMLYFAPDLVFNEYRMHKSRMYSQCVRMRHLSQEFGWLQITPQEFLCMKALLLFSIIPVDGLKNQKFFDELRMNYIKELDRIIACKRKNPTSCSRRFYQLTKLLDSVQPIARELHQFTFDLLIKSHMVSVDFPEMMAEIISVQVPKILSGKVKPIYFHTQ
Chain of AR / CBP ternary complex (Q92793 2-2442): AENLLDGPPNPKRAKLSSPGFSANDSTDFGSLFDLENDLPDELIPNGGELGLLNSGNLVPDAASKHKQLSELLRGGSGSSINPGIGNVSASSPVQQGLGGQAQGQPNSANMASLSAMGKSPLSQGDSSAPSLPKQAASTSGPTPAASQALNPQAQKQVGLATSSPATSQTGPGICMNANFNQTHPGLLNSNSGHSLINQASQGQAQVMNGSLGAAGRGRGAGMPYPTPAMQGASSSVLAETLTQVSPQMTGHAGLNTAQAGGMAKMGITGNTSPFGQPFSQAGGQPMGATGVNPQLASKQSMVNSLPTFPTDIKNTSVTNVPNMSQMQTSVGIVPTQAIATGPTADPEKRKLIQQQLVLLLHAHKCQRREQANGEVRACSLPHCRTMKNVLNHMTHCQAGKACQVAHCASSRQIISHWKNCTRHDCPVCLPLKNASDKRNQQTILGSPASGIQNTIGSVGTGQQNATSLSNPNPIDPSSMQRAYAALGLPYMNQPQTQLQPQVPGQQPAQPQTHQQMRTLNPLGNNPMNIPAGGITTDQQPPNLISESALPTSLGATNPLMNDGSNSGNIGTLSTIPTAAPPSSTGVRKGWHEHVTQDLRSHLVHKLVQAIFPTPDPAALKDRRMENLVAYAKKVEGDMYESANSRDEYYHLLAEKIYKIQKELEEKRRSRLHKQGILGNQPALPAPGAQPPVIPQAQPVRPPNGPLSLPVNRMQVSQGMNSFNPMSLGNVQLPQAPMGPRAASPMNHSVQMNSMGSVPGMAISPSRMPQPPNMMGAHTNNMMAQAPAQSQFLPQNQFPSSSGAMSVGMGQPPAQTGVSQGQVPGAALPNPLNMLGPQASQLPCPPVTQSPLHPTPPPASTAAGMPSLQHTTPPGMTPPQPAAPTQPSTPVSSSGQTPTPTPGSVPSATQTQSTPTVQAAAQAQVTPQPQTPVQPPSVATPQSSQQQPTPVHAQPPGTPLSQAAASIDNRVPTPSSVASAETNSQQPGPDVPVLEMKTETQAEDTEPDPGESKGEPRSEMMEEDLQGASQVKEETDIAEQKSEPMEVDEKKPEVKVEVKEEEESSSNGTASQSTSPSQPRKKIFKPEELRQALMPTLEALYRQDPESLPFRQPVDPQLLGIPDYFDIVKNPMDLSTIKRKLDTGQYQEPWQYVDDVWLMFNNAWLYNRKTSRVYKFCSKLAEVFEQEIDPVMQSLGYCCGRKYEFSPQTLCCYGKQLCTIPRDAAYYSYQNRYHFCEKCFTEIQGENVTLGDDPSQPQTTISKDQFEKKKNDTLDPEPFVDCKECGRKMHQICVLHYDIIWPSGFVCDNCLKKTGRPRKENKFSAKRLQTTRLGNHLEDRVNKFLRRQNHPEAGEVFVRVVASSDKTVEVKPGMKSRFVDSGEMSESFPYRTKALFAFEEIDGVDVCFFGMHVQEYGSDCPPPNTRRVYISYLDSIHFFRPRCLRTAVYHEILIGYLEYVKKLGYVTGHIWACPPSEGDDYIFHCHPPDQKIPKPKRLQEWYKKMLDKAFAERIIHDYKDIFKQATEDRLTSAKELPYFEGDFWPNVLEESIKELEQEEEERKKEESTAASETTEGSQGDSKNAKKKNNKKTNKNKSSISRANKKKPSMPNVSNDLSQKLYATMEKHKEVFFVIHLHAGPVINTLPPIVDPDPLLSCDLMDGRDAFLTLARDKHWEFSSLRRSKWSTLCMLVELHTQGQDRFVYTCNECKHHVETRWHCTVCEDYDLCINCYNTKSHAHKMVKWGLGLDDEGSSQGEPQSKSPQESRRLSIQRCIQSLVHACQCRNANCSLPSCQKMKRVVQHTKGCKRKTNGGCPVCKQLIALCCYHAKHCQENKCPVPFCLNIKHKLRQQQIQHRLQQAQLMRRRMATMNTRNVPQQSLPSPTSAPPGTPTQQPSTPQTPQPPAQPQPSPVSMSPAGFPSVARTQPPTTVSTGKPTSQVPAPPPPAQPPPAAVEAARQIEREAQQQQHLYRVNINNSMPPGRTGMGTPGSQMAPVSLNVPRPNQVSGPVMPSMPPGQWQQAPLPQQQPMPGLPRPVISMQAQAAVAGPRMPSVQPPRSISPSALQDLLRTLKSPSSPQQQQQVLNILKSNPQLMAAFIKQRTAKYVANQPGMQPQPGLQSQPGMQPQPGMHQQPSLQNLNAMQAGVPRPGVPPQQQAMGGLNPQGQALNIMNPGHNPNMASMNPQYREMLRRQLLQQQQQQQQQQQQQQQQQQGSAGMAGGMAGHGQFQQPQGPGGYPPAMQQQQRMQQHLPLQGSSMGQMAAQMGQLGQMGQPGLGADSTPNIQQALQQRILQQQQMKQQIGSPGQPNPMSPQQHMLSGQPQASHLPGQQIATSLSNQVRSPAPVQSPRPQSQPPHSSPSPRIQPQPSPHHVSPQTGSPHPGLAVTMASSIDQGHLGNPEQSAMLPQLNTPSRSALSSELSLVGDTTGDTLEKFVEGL

Structure (SMILES)	IC50 [1]	EC50 [2]
Cn1cc(-c2cc3cccc(-c4cc(C5CCN(CC6CCN(c7ccc(C(=O)N[C@H]8CC[C@H](Oc9ccc(C#N)c(Cl)c9)CC8)nn7)CC6)CC5)c5c(c4)n(C)c(=O)n5C)c3cn2)cn1 [Compound 31, N-[4-(3-chloro-4-cyano-phenoxy)cyclohexyl]-6-[4-[[4-[1,3-dimethyl-6-[3-(1-methylpyrazol-4-yl)-8-isoquinolyl]-2-oxo-benzimidazol-4-yl]-1-piperidyl]methyl]-1-piperidyl]pyridazine-3-carboxamide]	≤ 0.1 nM	< 1 nM
CC(=O)N1CCc2c(c(-c3cccc4cc(-c5cnn(C)c5)ncc34)nn2C2CCN(CC3CCN(c4ccc(C(=O)N[C@H]5CC[C@H](Oc6ccc(C#N)c(Cl)c6)CC5)nn4)CC3)CC2)C1 [Compound 32, 6-[4-[[4-[5-acetyl-3-[3-(1-methylpyrazol-4-yl)-8-isoquinolyl]-6,7-dihydro-4H-pyrazolo[4,3-c]pyridin-1-yl]-1-piperidyl]methyl]-1-piperidyl]-N-[4-(3-chloro-4-cyano-phenoxy)cyclohexyl]pyridazine-3-carboxamide]	≤ 0.1 nM	< 1 nM
Cn1cc(-c2cc3c(cc2C(F)F)N(c2cc(C4CCN(CC5CCN(c6ccc(C(=O)N[C@H]7CC[C@H](Oc8ccc(C#N)c(Cl)c8)CC7)nn6)CC5)CC4)c4c(c2)n(C)c(=O)n4C)CCC3)cn1 [Compound 33, N-[4-(3-chloro-4-cyano-phenoxy)cyclohexyl]-6-[4-[[4-[6-[7-(difluoromethyl)-6-(1-methylpyrazol-4-yl)-3,4-dihydro-2H-quinolin-1-yl]-1,3-dimethyl-2-oxo-benzimidazol-4-yl]-1-piperidyl]methyl]-1-piperidyl]pyridazine-3-carboxamide]	0.1 to 1 nM	< 1 nM
C[C@@H]1CC(=O)Nc2cccc(N3CCCc4cc(-c5cnn(CC6CCN(c7ccc(C(=O)N[C@H]8CC[C@H](Oc9ccc(C#N)c(Cl)c9)CC8)nn7)CC6)c5)c(C(F)F)cc43)c2N1 [Compound 34, N-[4-(3-chloro-4-cyano-phenoxy)cyclohexyl]-6-[4-[[4-[7-(difluoromethyl)-1-[(4R)-4-methyl-2-oxo1,3,4,5-tetrahydro-1,5-benzodiazepin-6-yl]-3,4-dihydro-2H-quinolin-6-yl]pyrazol-1-yl]methyl]-1-piperidyl]pyridazine-3-carboxamide]	0.1 to 1 nM	1 to 10 nM
Cc1cc2c(N3CCN(C)c4cc(-c5cnn(C)c5)c(C#N)cc43)cc(OC3CCN(c4ccc(C(=O)N[C@H]5CC[C@H](Oc6ccc(C#N)c(Cl)c6)CC5)nn4)CC3)cc2n(C)c1=O [Compound 35, N-[4-(3-chloro-4-cyano-phenoxy)cyclohexyl]-6-[4-[[5-[7-cyano-4-methyl-6-(1-methylpyrazol-4-yl)-2,3-dihydroquinoxalin-1-yl]-1,3-dimethyl-2-oxo-7-quinolyl]oxy]-1-piperidyl]pyridazine-3-carboxamide]	0.1 to 1 nM	> 100 nM
C[C@@H]1CC(=O)Nc2cccc(N3CCCc4cc(-c5cnn(CCC6CCN(c7ccc(C(=O)N[C@H]8CC[C@H](Oc9ccc(C#N)c(Cl)c9)CC8)nn7)CC6)c5)c(C(F)F)cc43)c2N1 [Compound 36, N-[4-(3-chloro-4-cyano-phenoxy)cyclohexyl]-6-[4-[2-[4-[7-(difluoromethyl)-1-[(4R)-4-methyl-2-oxo-1,3,4,5-tetrahydro-1,5-benzodiazepin-6-yl]-3,4-dihydro-2H-quinolin-6-yl]pyrazol-1-yl]ethyl]-1-piperidyl]pyridazine-3-carboxamide]	1 to 100 nM	10 to 100 nM
Cc1cc2c(N3CCN(C)c4cc(-c5cnn(C)c5)c(C#N)cc43)cc(OCC3CCN(c4ccc(C(=O)N[C@H]5CC[C@H](Oc6ccc(C#N)c(Cl)c6)CC5)nn4)CC3)cc2n(C)c1=O [Compound 37, N-[4-(3-chloro-4-cyano-phenoxy)cyclohexyl]-6-[4-[[5-[7-cyano-4-methyl-6-(1-methylpyrazol-4-yl)-2,3-dihydroquinoxalin-1-yl]-1,3-dimethyl-2-oxo-7-quinolyl]oxymethyl]-1-piperidyl]pyridazine-3-carboxamide]	0.1 to 1 nM	> 100 nM
Cc1cc2c(N3CCN(C)c4cc(-c5cnn(C)c5)c(C#N)cc43)cc(OCCC3CCN(c4ccc(C(=O)N[C@H]5CC[C@H](Oc6ccc(C#N)c(Cl)c6)CC5)nn4)CC3)cc2n(C)c1=O [Compound 38, N-[4-(3-chloro-4-cyano-phenoxy)cyclohexyl]-6-[4-[2-[[5-[7-cyano-4-methyl-6-(1-methylpyrazol-4-yl)-2,3-dihydroquinoxalin-1-yl]-1,3-dimethyl-2-oxo-7-quinolyl]oxy]ethyl]-1-piperidyl]pyridazine-3-carboxamide]	0.1 to 1 nM	> 100 nM
Cc1cc2c(N3CCN(C)c4cc(-c5cnn(C)c5)c(C#N)cc43)cc(OCCOC3CCN(c4ccc(C(=O)N[C@H]5CC[C@H](Oc6ccc(C#N)c(Cl)c6)CC5)nn4)CC3)cc2n(C)c1=O [Compound 39, N-[4-(3-chloro-4-cyano-phenoxy)cyclohexyl]-6-[4-[2-[[5-[7-cyano-4-methyl-6-(1-methylpyrazol-4-yl)-2,3-dihydroquinoxalin-1-yl]-1,3-dimethyl-2-oxo-7-quinolyl]oxy]ethoxy]-1-piperidyl]pyridazine-3-carboxamide]	≤ 0.1 nM	< 1 nM
CC(=O)N1CCc2c(c(N3CCCc4cc(-c5cnn(C)c5)c(C(F)F)cc43)nn2C2CC3(C2)CN(C(=O)C2CC4(C2)CN(c2ccc(C(=O)N[C@H]5CC[C@H](Oc6ccc(C#N)c(Cl)c6)CC5)nn2)C4)C3)C1 (some centres unmarked) [Compound 40, 6-[6-[6-[5-acetyl-3-[7-(difluorodimethyl)-6-(1-methylpyrazol-4-yl)-3,4-dihydro-2H-quinolin-1-yl]-6,7-dihydro-4H-pyrazolo[4,3-c]pyridin-1-yl]-2-azaspiro[3.3]heptane-2-carbonyl]-2-azaspiro[3.3]heptan-2-yl]-N-[4-(3-chloro-4-cyano-phenoxy)cyclohexyl]pyridazine-3-carboxamide]	0.1 to 1 nM	1 to 10 nM
CC(=O)N1CCc2c(c(N3CCCc4cc(-c5cnn(C)c5)c(C(F)F)cc43)nn2C2CC3(C2)CN(CC2CC4(C2)CN(c2ccc(C(=O)N[C@H]5CC[C@H](Oc6ccc(C#N)c(Cl)c6)CC5)nn2)C4)C3)C1 (some centres unmarked) [Compound 41, 6-[6-[[6-[5-acetyl-3-[7-(difluoromethyl)-6-(1-methylpyrazol-4-yl)-3,4-dihydro-2H-quinolin-1-yl]-6,7-dihydro-4H-pyrazolo[4,3-c]pyridin-1-yl]-2-azaspiro [3.3]heptan-2-yl]methyl]-2-azaspiro [3.3]heptan-2-yl]-N-[4-(3-chloro-4-cyano-phenoxy)cyclohexyl] pyridazine-3-carboxamide]	≤ 0.1 nM	< 1 nM
CC(=O)N1CCc2c(c(N3CCCc4ccc(C(F)F)cc43)nn2C2CC3(C2)CN(C(=O)C2CC4(C2)CN(c2ccc(C(=O)N[C@H]5CC[C@H](Oc6ccc(C#N)c(Cl)c6)CC5)nn2)C4)C3)C1 (some centres unmarked) [Compound 42, 6-[6-[6-[5-acetyl-3-[7-(difluoromethyl)-3,4-dihydro-2H-quinolin-1-yl]-6,7-dihydro-4H-pyrazolo[4,3-c]pyridin-1-yl]-2-azaspiro[3.3]heptane-2-carbonyl]-2-azaspiro[3.3]heptan-2-yl]-N-[4-(3-chloro-4-cyano-phenoxy)cyclohexyl]pyridazine-3-carboxamide]	0.1 to 1 nM	1 to 10 nM
CC(=O)N1CCc2c(c(N3CCCc4ccc(C(F)F)cc43)nn2C2CC3(C2)CN(CC2CC4(C2)CN(c2ccc(C(=O)N[C@H]5CC[C@H](Oc6ccc(C#N)c(Cl)c6)CC5)nn2)C4)C3)C1 (some centres unmarked) [Compound 43, -[6-[[6-[5-acetyl-3-[7-(difluoromethyl)-3,4-dihydro-2H-quinolin-1-yl]-6,7-dihydro-4H-pyrazolo[4,3-c]pyridin-1-yl]-2-azaspiro [3.3]heptan-2-yl]methyl]-2-azaspiro [3.3]heptan-2-yl]-N-[4-(3-chloro-4-cyano-phenoxy)cyclohexyl] pyridazine-3-carboxamide]	0.1 to 1 nM	1 to 10 nM
CC(=O)N1CCc2c(c(N3CCCc4cc(C#N)ccc43)nn2C2CC3(C2)CN(C(=O)C2CC4(C2)CN(c2ccc(C(=O)N[C@H]5CC[C@H](Oc6ccc(C#N)c(Cl)c6)CC5)nn2)C4)C3)C1 (some centres unmarked) [Compound 44, 6-[6-[6-[5-acetyl-3-(6-cyano-3,4-dihydro-2H-quinolin-1-yl)-6,7-dihydro-4H-pyrazolo[4,3-c]pyridin-1-yl]-2-azaspiro [3.3]heptane-2-carbonyl]-2-azaspiro[3.3]heptan-2-yl]-N-[4-(3-chloro-4-cyano-phenoxy)cyclohexyl] pyridazine-3-carboxamide]	0.1 to 1 nM	< 1 nM
CC(=O)N1CCc2c(c(N3CCCc4cc(C#N)ccc43)nn2C2CC3(C2)CN(CC2CC4(C2)CN(c2ccc(C(=O)N[C@H]5CC[C@H](Oc6ccc(C#N)c(Cl)c6)CC5)nn2)C4)C3)C1 (some centres unmarked) [Compound 45, 6-[6-[[6-[5-acetyl-3-(6-cyano-3,4-dihydro-2H-quinolin-1-yl)-6,7-dihydro-4H-pyrazolo[4,3-c]pyridin-1-yl]-2-azaspiro [3.3]heptan-2-yl]methyl]-2-azaspiro[3.3]heptan-2-yl]-N-[4-(3-chloro-4-cyano-phenoxy)cyclohexyl] pyridazine-3-carboxamide]	0.1 to 1 nM	< 1 nM
CC(=O)N1CCc2c(c(-c3cccc4cc(-c5cnn(CC6CC7(C6)CN(c6ccc(C(=O)N[C@H]8CC[C@H](Oc9ccc(C#N)c(Cl)c9)CC8)nn6)C7)c5)ncc34)nn2C2CCOCC2)C1 [Compound 46, 6-[6-[[4-[8-(5-acetyl-1-tetrahydropyran-4-yl-6,7-dihydro-4H-pyrazolo[4,3-c]pyridin-3-yl)-3-isoquinolyl]pyrazol-1-yl]methyl]-2-azaspiro[3.3]heptan-2-yl]-N-[4-(3-chloro-4-cyano-phenoxy)cyclohexyl]pyridazine-3-carboxamide]	0.1 to 1 nM	< 1 nM
